Assay results taken from PubChem BioAssay (NCI).
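Growth conditions: 96-well plates. Treatment: test compound, 48 hours, 5 concentrations. Analysis: linear interpolation between bracketing concentrations; unreached endpoints set to highest concentration. GI50 marks 50% less growth. TGI marks complete inhibition of growth.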

How the values were obtained:
Experiment in all cases: NCI anticancer screen, dose series, 48 h
SNB-19 CNS = test system: SNB-19 CNS
OVCAR-8 ovarian = test system: OVCAR-8 ovarian
HOP-62 NSCLC = test system: HOP-62 NSCLC
SN12C renal = test system: SN12C renal
UACC-62 melanoma = test system: UACC-62 melanoma
HS 578T breast = test system: HS 578T breast
M14 melanoma = test system: M14 melanoma
CCRF-CEM leukemia = test system: CCRF-CEM leukemia
SF-539 CNS = test system: SF-539 CNS
RPMI-8226 leukemia = test system: RPMI-8226 leukemia
MDA-MB-231 breast = test system: MDA-MB-231 breast
MDA-MB-435 = test system: MDA-MB-435
A549 NSCLC = test system: A549 NSCLC
SK-OV-3 ovarian = test system: SK-OV-3 ovarian
SK-MEL-5 melanoma = test system: SK-MEL-5 melanoma
NCI/ADR-RES ovarian = test system: NCI/ADR-RES ovarian
TK-10 renal = test system: TK-10 renal
SW-620 colon = test system: SW-620 colon
HCC-2998 colon = test system: HCC-2998 colon
U251 CNS = test system: U251 CNS
OVCAR-5 ovarian = test system: OVCAR-5 ovarian
K-562 leukemia = test system: K-562 leukemia
UO-31 renal = test system: UO-31 renal
IGROV1 ovarian = test system: IGROV1 ovarian
CAKI-1 renal = test system: CAKI-1 renal
PC-3 prostate = test system: PC-3 prostate
NCI-H522 lung = test system: NCI-H522 lung

For `CC(=O)C1=C(C)N(C)C2(O)C=CC(=O)C3=C(O)c4ccccc4C(=O)C312` (stereo not drawn), the GI50 (SNB-19 CNS) was 2.18 µM, the TGI (SNB-19 CNS) was 27 µM and the GI50 (OVCAR-8 ovarian) was 24 µM. For the same molecule, the TGI (OVCAR-8 ovarian) was greater than 100 µM, the GI50 (HOP-62 NSCLC) was 5.16 µM and the TGI (HOP-62 NSCLC) was 18.4 µM. The GI50 (SN12C renal) was 3.13 µM, the TGI (SN12C renal) was 8.81 µM and the GI50 (UACC-62 melanoma) was 3.89 µM. The TGI (UACC-62 melanoma) was 14 µM, the GI50 (HS 578T breast) was 7.23 µM and the TGI (HS 578T breast) was 40.5 µM. For the same molecule, the GI50 (M14 melanoma) was 2.81 µM, the TGI (M14 melanoma) was 7.87 µM and the GI50 (CCRF-CEM leukemia) was 1.92 µM. It also gave a TGI (CCRF-CEM leukemia) greater than 100 µM, a GI50 (SF-539 CNS) of 2.76 µM and a TGI (SF-539 CNS) of 6.55 µM. For the same molecule, the GI50 (RPMI-8226 leukemia) was 3.02 µM, the TGI (RPMI-8226 leukemia) was 31.5 µM and the GI50 (MDA-MB-231 breast) was 4.96 µM. It also gave a TGI (MDA-MB-231 breast) of 21.6 µM, a GI50 (MDA-MB-435) of 2.12 µM and a TGI (MDA-MB-435) of 3.89 µM. The GI50 (A549 NSCLC) was 23 µM, the TGI (A549 NSCLC) was greater than 100 µM and the GI50 (SK-OV-3 ovarian) was 6.9 µM. It also gave a TGI (SK-OV-3 ovarian) of 32.4 µM, a GI50 (SK-MEL-5 melanoma) of 2.51 µM and a TGI (SK-MEL-5 melanoma) of 9.02 µM. The GI50 (NCI/ADR-RES ovarian) was 5.49 µM, the TGI (NCI/ADR-RES ovarian) was greater than 100 µM and the GI50 (TK-10 renal) was 6.72 µM. The TGI (TK-10 renal) was 20.7 µM, the GI50 (SW-620 colon) was 4.41 µM and the TGI (SW-620 colon) was 33.5 µM. The GI50 (HCC-2998 colon) was 13.8 µM, the TGI (HCC-2998 colon) was 61.8 µM and the GI50 (U251 CNS) was 14 µM. The TGI (U251 CNS) was 31.4 µM, the GI50 (OVCAR-5 ovarian) was 22.1 µM and the TGI (OVCAR-5 ovarian) was 66.1 µM. The GI50 (K-562 leukemia) was 3.14 µM, the TGI (K-562 leukemia) was greater than 100 µM and the GI50 (UO-31 renal) was 27 µM. For the same molecule, the TGI (UO-31 renal) was greater than 100 µM, the GI50 (IGROV1 ovarian) was 23.5 µM and the TGI (IGROV1 ovarian) was greater than 100 µM. The GI50 (CAKI-1 renal) was 3.52 µM, the TGI (CAKI-1 renal) was 9.65 µM and the GI50 (PC-3 prostate) was 3.42 µM. The TGI (PC-3 prostate) was 15.9 µM and the GI50 (NCI-H522 lung) was 23.8 µM.
